Laboratory results from PMC4358768 (Journal of medicinal chemistry, 2011).
Blank lines part the entries; values can stand above or below the compound they belong to.

How the values were obtained:
rP2Y1-GFP receptor = conditions: read-out: EC50 at P2Y1R (rP2Y1-GFP receptor); cited from earlier work
tP2Y1 receptor = tP2Y1 receptor (Meleagris gallopavo, UniProt P49652); experiment: [Ca2+]i elevation in 1321N1 astrocytoma cells expressing turkey P2Y1 receptor; type: cell-based; conditions: 1321N1 astrocytoma cells stably transfected with turkey P2Y1 receptor, fura-2, 37 °C; for EC50: read-out: EC50 for [Ca2+]i elevation, P2Y1
Sequence of tP2Y1 receptor (P49652 whole entry): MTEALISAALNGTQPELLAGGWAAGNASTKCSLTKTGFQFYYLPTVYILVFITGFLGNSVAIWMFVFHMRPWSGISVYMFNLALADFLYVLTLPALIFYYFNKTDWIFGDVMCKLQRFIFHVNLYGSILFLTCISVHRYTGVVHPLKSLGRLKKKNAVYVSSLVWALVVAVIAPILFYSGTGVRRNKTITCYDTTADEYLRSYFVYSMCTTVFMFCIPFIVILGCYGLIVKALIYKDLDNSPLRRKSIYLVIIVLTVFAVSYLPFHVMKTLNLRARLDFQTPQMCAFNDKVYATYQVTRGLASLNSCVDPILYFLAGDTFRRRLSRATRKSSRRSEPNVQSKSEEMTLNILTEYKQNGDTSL

human e-NPP1 = molecular target: T1, human e-NPP1 (Homo sapiens, UniProt P22413); experiment: Hydrolysis of dinucleotides by human e-NPP1; type: in vitro ADME; conditions: over 20 min at 37 °C, pH 8.5
T1 sequence (P22413 1-925): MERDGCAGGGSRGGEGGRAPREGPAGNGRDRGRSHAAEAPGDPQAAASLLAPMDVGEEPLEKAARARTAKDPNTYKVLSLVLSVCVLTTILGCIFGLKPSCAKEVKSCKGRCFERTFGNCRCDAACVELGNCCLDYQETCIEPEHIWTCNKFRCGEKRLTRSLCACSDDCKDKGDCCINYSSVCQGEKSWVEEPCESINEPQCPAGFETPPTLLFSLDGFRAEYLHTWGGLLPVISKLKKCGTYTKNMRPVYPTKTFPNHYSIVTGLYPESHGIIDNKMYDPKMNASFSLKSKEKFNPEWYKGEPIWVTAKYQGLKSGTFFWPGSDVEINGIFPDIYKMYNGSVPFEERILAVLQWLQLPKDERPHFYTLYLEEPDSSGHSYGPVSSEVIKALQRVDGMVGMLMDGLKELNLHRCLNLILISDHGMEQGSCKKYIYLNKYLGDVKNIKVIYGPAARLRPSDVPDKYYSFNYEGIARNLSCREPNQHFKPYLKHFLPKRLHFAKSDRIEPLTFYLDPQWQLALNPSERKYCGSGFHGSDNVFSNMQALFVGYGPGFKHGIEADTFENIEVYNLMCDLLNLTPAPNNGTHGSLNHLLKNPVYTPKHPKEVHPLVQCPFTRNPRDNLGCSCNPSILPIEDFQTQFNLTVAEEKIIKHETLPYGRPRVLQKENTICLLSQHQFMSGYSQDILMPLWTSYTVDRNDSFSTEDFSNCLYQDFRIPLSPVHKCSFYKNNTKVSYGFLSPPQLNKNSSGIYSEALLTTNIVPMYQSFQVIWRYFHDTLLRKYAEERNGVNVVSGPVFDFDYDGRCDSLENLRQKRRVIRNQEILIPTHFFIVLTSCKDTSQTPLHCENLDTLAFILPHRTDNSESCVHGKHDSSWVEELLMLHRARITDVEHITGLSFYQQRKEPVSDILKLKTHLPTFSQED

P2Y2R = conditions: read-out: EC50 at P2Y2R; cited from earlier work

Compound: CSc1nc(N)c2ncn([C@@H]3O[C@H](COP(=O)(O)OP(=O)(O)O)[C@@H](O)[C@H]3O)c2n1 [Analogue 2-SMe-ADP]
EC50 (rP2Y1-GFP receptor): 100 nM

Compound: [BH3-][P+](O)(OP(=O)(O)OC[C@H]1O[C@@H](n2ccc(=O)[nH]c2=O)[C@H](O)[C@@H]1O)OP(=O)(O)OP(=O)(O)OC[C@H]1O[C@@H](n2ccc(=O)[nH]c2=O)[C@H](O)[C@@H]1O (some centres unmarked) [Analogue 7A, P^2-Borano-P^1,P^4-di(5′-uridine)tetraphosphate]
EC50 (tP2Y1 receptor): > 100000 nM

Compound: [BH3-][P+](O)(OP(=O)(O)OC[C@H]1O[C@@H](n2cnc3c(N)ncnc32)[C@H](O)[C@@H]1O)OP(=O)(O)OP(=O)(O)OC[C@H]1O[C@@H](n2ccc(=O)[nH]c2=O)[C@H](O)[C@@H]1O (some centres unmarked) [Analogue 8, P^3-Borano-P^1,P^4-5′-uridine-5′-adenosinetetraphosphate]
EC50 for [Ca2+]i elevation, P2Y1 (tP2Y1 receptor; listed as Ap4(β-B)U): inactive

Compound: [BH3-][P+](O)(OP(=O)(O)OC[C@H]1O[C@@H](n2cnc3c(N)ncnc32)[C@H](O)[C@@H]1O)OP(=O)(O)OP(=O)(O)OC[C@H]1O[C@@H](n2ccc(=O)[nH]c2=O)[C@H](O)[C@@H]1O (some centres unmarked) [Analogue 8A, P^3-Borano-P^1,P^4-5′-uridine-5′-adenosinetetraphosphate]
EC50 (tP2Y1 receptor): > 100000 nM

percentage of the compound hydrolyzed by human e-NPP1 (human e-NPP1): completely resistant to hydrolysis
Compound: BP(=O)(OC[C@H]1O[C@@H](n2cnc3c(N)ncnc32)[C@H](O)[C@@H]1O)OP(=O)(O)OP(=O)(O)OC[C@H]1O[C@@H](n2cnc3c(N)ncnc32)[C@H](O)[C@@H]1O (some centres unmarked) [Analogue 10A, P^1-Borano-P^1,P^3-5′-diadenosinetriphosphate]

percentage of the compound hydrolyzed by human e-NPP1 (human e-NPP1): completely resistant to hydrolysis
Compound: BP(=O)(OC[C@H]1O[C@@H](n2ccc(=O)[nH]c2=O)[C@H](O)[C@@H]1O)OP(=O)(O)OP(=O)(O)OC[C@H]1O[C@@H](n2ccc(=O)[nH]c2=O)[C@H](O)[C@@H]1O (some centres unmarked) [Analogue 11A, P^1-Borano-P^1,P^3-5′-diuridinetriphosphate]

Compound: BP(=O)(OC[C@H]1O[C@@H](n2ccc(=O)[nH]c2=O)[C@H](O)[C@@H]1O)OP(=O)(O)OP(=O)(O)OP(=O)(O)OC[C@H]1O[C@@H](n2ccc(=O)[nH]c2=O)[C@H](O)[C@@H]1O (some centres unmarked) [Analogue 13A, P^1-Borano-P^1,P^4-5′-diuridinetetraphosphate]
EC50 (tP2Y1 receptor): > 100000 nM

Compound: O=c1ccn([C@@H]2O[C@H](COP(=O)(O)OP(=O)(O)OP(=O)(O)O)[C@@H](O)[C@H]2O)c(=O)[nH]1 [UTP, uridine 5′-triphosphate]
EC50 (P2Y2R): 15 nM
